US20110045982A1, “HERBICIDAL COMPOSITION” (NOF CORPORATION, priority 2009, published 2011)

system: Japanese white rabbits; settings: hydrolysate of base compound, 50% in purified water, 0.1 mL instilled, three male rabbits; observed 1, 6, 12 and 24 hr
Procedure: Assuming that the base compound is hydrolyzed in the natural world, the biological reaction of hydrolysate was evaluated by eye irritancy. To be specific, the base compound (10 g) shown in Table 1 was added to 100 mL of water, and the mixture was adjusted to pH 10 with an aqueous sodium hydroxide solution. The mixture was placed in a flask, heated to 80° C., and stirred for 1 hr while adding an aqueous sodium hydroxide solution as appropriate every 10 min to maintain pH 10. The mixture was adjusted to pH 3.5 with an aqueous hydrochloric acid solution, and the mixture was washed 3 times with hexane to remove fatty acid. The solution was neutralized with an aqueous sodium hydroxide solution, evaporated and filtered to remove sodium chloride. The viscous liquid was diluted with purified water to a concentration of 50% and used as an eye irritancy measurement sample.
Using three male Japanese white rabbits per sample, the above-mentioned eye irritancy measurement sample (0.1 mL) was instilled into the unilateral intracapsular conjunctiva of each test animal, and the upper and lower eyelids were gently closed and maintained for about 1 sec. The other eye was used as control without treatment. After instillation, the cornea, iris, conjunctiva and the like were observed 1, 6, 12 and 24 hr later.

Row | SMILES | eye irritancy of hydrolysate
1 | CCCCCCCCC(=O)OCCO [compound 4, ethylene glycol monopelargric acid ester, reference compound] | problematic
2 | CCCCCCCC(=O)OCC(COC(=O)CCCCCCC)OC(=O)CCCCCCC [Ex. 1, Glycerol tricaprylic acid ester] | no problem
3 | CCCCCCCCCCCC(=O)OCC(O)CO (stereo not drawn) [Ex. 7, Glycerol monolauric acid ester] | no problem
